In PubChem BioAssay (NCI):
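Cultured in 96-well plates, cells were exposed to test compound for 48 hours across five concentrations. GI50 marks 50% less growth. Definition used: TGI = concentration required for complete inhibition of growth.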

Assays:
Assay in all cases: NCI anticancer screen, dose series, 48 h
786-0 renal = tested on: 786-0 renal
A498 renal = tested on: A498 renal
A549 NSCLC = tested on: A549 NSCLC
ACHN renal = tested on: ACHN renal
BT-549 breast = tested on: BT-549 breast
CAKI-1 renal = tested on: CAKI-1 renal
CCRF-CEM leukemia = tested on: CCRF-CEM leukemia
COLO 205 colon = tested on: COLO 205 colon
DU-145 prostate = tested on: DU-145 prostate
EKVX NSCLC = tested on: EKVX NSCLC
HCC-2998 colon = tested on: HCC-2998 colon
HCT-116 colon = tested on: HCT-116 colon
HCT-15 colon = tested on: HCT-15 colon
HL-60(TB) leukemia = tested on: HL-60(TB) leukemia
HOP-62 NSCLC = tested on: HOP-62 NSCLC
HOP-92 NSCLC = tested on: HOP-92 NSCLC
HS 578T breast = tested on: HS 578T breast
HT29 colon = tested on: HT29 colon
IGROV1 ovarian = tested on: IGROV1 ovarian
K-562 leukemia = tested on: K-562 leukemia
KM12 colon = tested on: KM12 colon
LOX IMVI melanoma = tested on: LOX IMVI melanoma
M14 melanoma = tested on: M14 melanoma
MALME-3M melanoma = tested on: MALME-3M melanoma
MCF7 breast = tested on: MCF7 breast
MDA-MB-231 breast = tested on: MDA-MB-231 breast
MDA-MB-435 = tested on: MDA-MB-435
MOLT-4 leukemia = tested on: MOLT-4 leukemia
NCI-H23 lung = tested on: NCI-H23 lung
NCI-H460 lung = tested on: NCI-H460 lung
NCI-H522 lung = tested on: NCI-H522 lung
NCI/ADR-RES ovarian = tested on: NCI/ADR-RES ovarian
OVCAR-3 ovarian = tested on: OVCAR-3 ovarian
OVCAR-4 ovarian = tested on: OVCAR-4 ovarian
OVCAR-5 ovarian = tested on: OVCAR-5 ovarian
OVCAR-8 ovarian = tested on: OVCAR-8 ovarian
PC-3 prostate = tested on: PC-3 prostate
RPMI-8226 leukemia = tested on: RPMI-8226 leukemia
RXF 393 renal = tested on: RXF 393 renal
SF-268 CNS = tested on: SF-268 CNS
SF-295 CNS = tested on: SF-295 CNS
SF-539 CNS = tested on: SF-539 CNS
SK-MEL-2 melanoma = tested on: SK-MEL-2 melanoma
SK-MEL-28 melanoma = tested on: SK-MEL-28 melanoma
SK-MEL-5 melanoma = tested on: SK-MEL-5 melanoma
SK-OV-3 ovarian = tested on: SK-OV-3 ovarian
SN12C renal = tested on: SN12C renal
SNB-19 CNS = tested on: SNB-19 CNS
SNB-75 CNS = tested on: SNB-75 CNS
SR leukemia = tested on: SR leukemia
SW-620 colon = tested on: SW-620 colon
T-47D breast = tested on: T-47D breast
TK-10 renal = tested on: TK-10 renal
U251 CNS = tested on: U251 CNS
UACC-257 melanoma = tested on: UACC-257 melanoma
UACC-62 melanoma = tested on: UACC-62 melanoma
UO-31 renal = tested on: UO-31 renal

COc1cc2c(cc1OCCCOc1cc3c(cc1OC)C(=O)N1CC(F)(F)C[C@H]1C=N3)N=C[C@@H]1CC(F)(F)CN1C2=O
TGI (786-0 renal): 877 nM | GI50 (A498 renal): 1030 nM | TGI (A498 renal): 2650 nM | GI50 (A549 NSCLC): 3790 nM | TGI (A549 NSCLC): > 100000 nM | GI50 (ACHN renal): 973 nM | TGI (ACHN renal): 13900 nM | GI50 (BT-549 breast): 727 nM | TGI (BT-549 breast): 3120 nM | GI50 (CAKI-1 renal): 185 nM | TGI (CAKI-1 renal): 708 nM | TGI (CCRF-CEM leukemia): 1060 nM | GI50 (COLO 205 colon): 814 nM | TGI (COLO 205 colon): 2490 nM | GI50 (DU-145 prostate): 329 nM | TGI (DU-145 prostate): 2820 nM | GI50 (EKVX NSCLC): 1660 nM | TGI (EKVX NSCLC): 7060 nM | GI50 (HCC-2998 colon): 1370 nM | TGI (HCC-2998 colon): 3450 nM | GI50 (HCT-116 colon): 415 nM | TGI (HCT-116 colon): 2250 nM | GI50 (HCT-15 colon): 10400 nM | TGI (HCT-15 colon): 50600 nM | GI50 (HL-60(TB) leukemia): 98.4 nM | TGI (HL-60(TB) leukemia): 2000 nM | GI50 (HOP-62 NSCLC): 206 nM | TGI (HOP-62 NSCLC): 2590 nM | GI50 (HOP-92 NSCLC): 336 nM | TGI (HOP-92 NSCLC): 7730 nM | GI50 (HS 578T breast): 3130 nM | TGI (HS 578T breast): 15300 nM | GI50 (HT29 colon): 641 nM | TGI (HT29 colon): 13000 nM | GI50 (IGROV1 ovarian): 116 nM | TGI (IGROV1 ovarian): 2330 nM | GI50 (K-562 leukemia): 601 nM | TGI (K-562 leukemia): 4810 nM | GI50 (KM12 colon): 2370 nM | TGI (KM12 colon): 13600 nM | GI50 (LOX IMVI melanoma): 256 nM | TGI (LOX IMVI melanoma): 2650 nM | GI50 (M14 melanoma): 698 nM | TGI (M14 melanoma): 3700 nM | GI50 (MALME-3M melanoma): 1270 nM | TGI (MALME-3M melanoma): 3190 nM | GI50 (MCF7 breast): 195 nM | TGI (MCF7 breast): 11400 nM | GI50 (MDA-MB-231 breast): 1310 nM | TGI (MDA-MB-231 breast): 6770 nM | GI50 (MDA-MB-435): 1600 nM | TGI (MDA-MB-435): 4910 nM | GI50 (MOLT-4 leukemia): 38.3 nM | TGI (MOLT-4 leukemia): 1720 nM | GI50 (NCI-H23 lung): 492 nM | TGI (NCI-H23 lung): 9860 nM | GI50 (NCI-H460 lung): 55.1 nM | TGI (NCI-H460 lung): 2450 nM | GI50 (NCI-H522 lung): 228 nM | TGI (NCI-H522 lung): 1030 nM | GI50 (NCI/ADR-RES ovarian): 21400 nM | TGI (NCI/ADR-RES ovarian): > 84000 nM | GI50 (OVCAR-3 ovarian): 420 nM | TGI (OVCAR-3 ovarian): 6990 nM | GI50 (OVCAR-4 ovarian): 3450 nM | TGI (OVCAR-4 ovarian): 17400 nM | GI50 (OVCAR-5 ovarian): 1740 nM | TGI (OVCAR-5 ovarian): 8990 nM | GI50 (OVCAR-8 ovarian): 899 nM | TGI (OVCAR-8 ovarian): 9160 nM | GI50 (PC-3 prostate): 1280 nM | TGI (PC-3 prostate): 9900 nM | GI50 (RPMI-8226 leukemia): 1640 nM | TGI (RPMI-8226 leukemia): 5790 nM | GI50 (RXF 393 renal): 1380 nM | TGI (RXF 393 renal): 2870 nM | GI50 (SF-268 CNS): 216 nM | TGI (SF-268 CNS): 17800 nM | GI50 (SF-295 CNS): 63.5 nM | TGI (SF-295 CNS): 539 nM | GI50 (SF-539 CNS): 165 nM | TGI (SF-539 CNS): 2720 nM | GI50 (SK-MEL-2 melanoma): 2320 nM | TGI (SK-MEL-2 melanoma): 12800 nM | GI50 (SK-MEL-28 melanoma): 1950 nM | TGI (SK-MEL-28 melanoma): 5470 nM | GI50 (SK-MEL-5 melanoma): 1150 nM | TGI (SK-MEL-5 melanoma): 2390 nM | GI50 (SK-OV-3 ovarian): 1020 nM | TGI (SK-OV-3 ovarian): > 30300 nM | GI50 (SN12C renal): 269 nM | TGI (SN12C renal): > 37200 nM | GI50 (SNB-19 CNS): 446 nM | TGI (SNB-19 CNS): 18300 nM | GI50 (SNB-75 CNS): 1580 nM | TGI (SNB-75 CNS): 18400 nM | GI50 (SR leukemia): < 26.1 nM | TGI (SR leukemia): 508 nM | GI50 (SW-620 colon): 469 nM | TGI (SW-620 colon): 4030 nM | GI50 (T-47D breast): 344 nM | TGI (T-47D breast): 5120 nM | GI50 (TK-10 renal): 3560 nM | TGI (TK-10 renal): 12500 nM | GI50 (U251 CNS): 166 nM | TGI (U251 CNS): 11400 nM | GI50 (UACC-257 melanoma): 2000 nM | TGI (UACC-257 melanoma): 5460 nM | GI50 (UACC-62 melanoma): 365 nM | TGI (UACC-62 melanoma): 1820 nM | GI50 (UO-31 renal): 1240 nM | TGI (UO-31 renal): > 33100 nM
